Experimental data as given in the supplement of paper PMC10883282.

Key:
Experiment in all cases: relative viability vs DMSO control (72 h) (fraction); higher = more viable cells
SK-LMS-1 = test system: SK-LMS-1
How it was run: (§1)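 Sarcoma cell lines were grown in 384-well plates seeded toward 80–90% confluence and exposed 24 h later to serially diluted compound. After 72 h at 37 °C and 5% CO2, with 0.1% DMSO vehicle and a 5 µM positive control on the plates, ATPLite was read. Relative viability, given as percent growth averaged over up to triplicate wells, was rescaled so that 1 is full and 0 is none.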

G401 = test system: G401
How it was run: as §1

RD-ES = test system: RD-ES
How it was run: as §1

KHOS-NP = test system: KHOS-NP
How it was run: as §1

SW872 = test system: SW872
How it was run: as §1

MES-SA = test system: MES-SA
How it was run: as §1

VA-ES-BJ = test system: VA-ES-BJ
How it was run: as §1

SW1353 = test system: SW1353
How it was run: as §1

HT1080 = test system: HT1080
How it was run: as §1

RD = test system: RD
How it was run: as §1

SW684 = test system: SW684
How it was run: as §1

SK-ES-1 = test system: SK-ES-1
How it was run: as §1

COc1cc(Nc2c(C#N)cnc3cc(OCCCN4CCN(C)CC4)c(OC)cc23)c(Cl)cc1Cl [Bosutinib]
Details	relative viability
G401, 0.00017 µM	1.09
G401, 0.00051 µM	1.09
G401, 0.00152 µM	1.08
G401, 0.00457 µM	1.06
G401, 0.01372 µM	1.09
G401, 0.04115 µM	1.09
G401, 0.1235 µM	1.08
G401, 0.3704 µM	1.08
G401, 1.111 µM	1.03
G401, 3.333 µM	0.909
G401, 10 µM	0.0203
HT1080, 0.00017 µM	1.14
HT1080, 0.00051 µM	1.14
HT1080, 0.00152 µM	1.09
HT1080, 0.00457 µM	1.14
HT1080, 0.01372 µM	1.11
HT1080, 0.04115 µM	1.16
HT1080, 0.1235 µM	1.14
HT1080, 0.3704 µM	1.14
HT1080, 1.111 µM	1.05
HT1080, 3.333 µM	0.775
HT1080, 10 µM	0.0548
KHOS-NP, 0.00017 µM	1.08
KHOS-NP, 0.00051 µM	1.12
KHOS-NP, 0.00152 µM	1.13
KHOS-NP, 0.00457 µM	1.11
KHOS-NP, 0.01372 µM	1.117
KHOS-NP, 0.04115 µM	1.11
KHOS-NP, 0.1235 µM	1.1
KHOS-NP, 0.3704 µM	1.01
KHOS-NP, 1.111 µM	0.837
KHOS-NP, 3.333 µM	0.482
KHOS-NP, 10 µM	0.264
MES-SA, 0.00017 µM	1.018
MES-SA, 0.00051 µM	0.992
MES-SA, 0.00152 µM	1.01
MES-SA, 0.00457 µM	0.979
MES-SA, 0.01372 µM	0.989
MES-SA, 0.04115 µM	0.993
MES-SA, 0.1235 µM	0.994
MES-SA, 0.3704 µM	0.926
MES-SA, 1.111 µM	0.675
MES-SA, 3.333 µM	0.432
MES-SA, 10 µM	0.228
RD, 0.00017 µM	1.11
RD, 0.00051 µM	1.11
RD, 0.00152 µM	1.12
RD, 0.00457 µM	1.11
RD, 0.01372 µM	1.11
RD, 0.04115 µM	1.14
RD, 0.1235 µM	1.15
RD, 0.3704 µM	1.12
RD, 1.111 µM	0.88
RD, 3.333 µM	0.665
RD, 10 µM	0.0202
RD-ES, 0.00017 µM	0.965
RD-ES, 0.00051 µM	0.981
RD-ES, 0.00152 µM	0.987
RD-ES, 0.00457 µM	0.972
RD-ES, 0.01372 µM	0.98
RD-ES, 0.04115 µM	0.974
RD-ES, 0.1235 µM	0.941
RD-ES, 0.3704 µM	0.906
RD-ES, 1.111 µM	0.715
RD-ES, 3.333 µM	0.472
RD-ES, 10 µM	0.0125
SK-ES-1, 0.00017 µM	1.05
SK-ES-1, 0.00051 µM	1.06
SK-ES-1, 0.00152 µM	1.06
SK-ES-1, 0.00457 µM	1.07
SK-ES-1, 0.01372 µM	1
SK-ES-1, 0.04115 µM	1.02
SK-ES-1, 0.1235 µM	0.935
SK-ES-1, 0.3704 µM	0.732
SK-ES-1, 1.111 µM	0.482
SK-ES-1, 3.333 µM	0.303
SK-ES-1, 10 µM	0.136
SK-LMS-1, 0.00017 µM	1.06
SK-LMS-1, 0.00051 µM	1.07
SK-LMS-1, 0.00152 µM	1.08
SK-LMS-1, 0.00457 µM	1.07
SK-LMS-1, 0.01372 µM	1.1
SK-LMS-1, 0.04115 µM	1.16
SK-LMS-1, 0.1235 µM	1.22
SK-LMS-1, 0.3704 µM	1.24
SK-LMS-1, 1.111 µM	1.1
SK-LMS-1, 3.333 µM	0.873
SK-LMS-1, 10 µM	0.0696
SW684, 0.00017 µM	1.24
SW684, 0.00051 µM	1.25
SW684, 0.00152 µM	1.306
SW684, 0.00457 µM	1.27
SW684, 0.01372 µM	1.25
SW684, 0.04115 µM	1.28
SW684, 0.1235 µM	1.33
SW684, 0.3704 µM	1.31
SW684, 1.111 µM	1.05
SW684, 3.333 µM	0.6
SW684, 10 µM	0.101
SW872, 0.00017 µM	1.1
SW872, 0.00051 µM	1.131
SW872, 0.00152 µM	1.12
SW872, 0.00457 µM	1.12
SW872, 0.01372 µM	1.12
SW872, 0.04115 µM	1.123
SW872, 0.1235 µM	1.085
SW872, 0.3704 µM	0.984
SW872, 1.111 µM	0.727
SW872, 3.333 µM	0.555
SW872, 10 µM	0.0547
SW1353, 0.00017 µM	1.11
SW1353, 0.00051 µM	1.11
SW1353, 0.00152 µM	1.12
SW1353, 0.00457 µM	1.09
SW1353, 0.01372 µM	1.1
SW1353, 0.04115 µM	1.13
SW1353, 0.1235 µM	1.09
SW1353, 0.3704 µM	1.04
SW1353, 1.111 µM	0.896
SW1353, 3.333 µM	0.673
SW1353, 10 µM	0.0287
VA-ES-BJ, 0.00017 µM	1.11
VA-ES-BJ, 0.00051 µM	1.14
VA-ES-BJ, 0.00152 µM	1.12
VA-ES-BJ, 0.00457 µM	1.12
VA-ES-BJ, 0.01372 µM	1.14
VA-ES-BJ, 0.04115 µM	1.16
VA-ES-BJ, 0.1235 µM	1.14
VA-ES-BJ, 0.3704 µM	1.03
VA-ES-BJ, 1.111 µM	0.729
VA-ES-BJ, 3.333 µM	0.545
VA-ES-BJ, 10 µM	0.0514

COc1cc2nccc(Oc3ccc(NC(=O)C4(C(=O)Nc5ccc(F)cc5)CC4)cc3)c2cc1OC [Cabozantinib]
Details	relative viability
G401, 0.00017 µM	1.08
G401, 0.00051 µM	1.05
G401, 0.00152 µM	1.02
G401, 0.00457 µM	1.06
G401, 0.01372 µM	1.05
G401, 0.04115 µM	0.997
G401, 0.1235 µM	0.969
G401, 0.3704 µM	0.858
G401, 1.111 µM	0.804
G401, 3.333 µM	0.514
G401, 10 µM	0.215
HT1080, 0.00017 µM	1.06
HT1080, 0.00051 µM	1.06
HT1080, 0.00152 µM	1.07
HT1080, 0.00457 µM	1.07
HT1080, 0.01372 µM	1.05
HT1080, 0.04115 µM	1.04
HT1080, 0.1235 µM	1.06
HT1080, 0.3704 µM	1.06
HT1080, 1.111 µM	1.07
HT1080, 3.333 µM	0.962
HT1080, 10 µM	0.482
KHOS-NP, 0.00017 µM	1.07
KHOS-NP, 0.00051 µM	1.09
KHOS-NP, 0.00152 µM	1.1
KHOS-NP, 0.00457 µM	1.06
KHOS-NP, 0.01372 µM	1.09
KHOS-NP, 0.04115 µM	1.07
KHOS-NP, 0.1235 µM	1.08
KHOS-NP, 0.3704 µM	1.07
KHOS-NP, 1.111 µM	1.04
KHOS-NP, 3.333 µM	0.924
KHOS-NP, 10 µM	0.586
MES-SA, 0.00017 µM	0.994
MES-SA, 0.00051 µM	0.953
MES-SA, 0.00152 µM	0.947
MES-SA, 0.00457 µM	0.948
MES-SA, 0.01372 µM	0.934
MES-SA, 0.04115 µM	0.929
MES-SA, 0.1235 µM	0.912
MES-SA, 0.3704 µM	0.89
MES-SA, 1.111 µM	0.807
MES-SA, 3.333 µM	0.262
MES-SA, 10 µM	0.163
RD, 0.00017 µM	1.073
RD, 0.00051 µM	1.09
RD, 0.00152 µM	1.09
RD, 0.00457 µM	1.12
RD, 0.01372 µM	1.11
RD, 0.04115 µM	1.12
RD, 0.1235 µM	1.13
RD, 0.3704 µM	1.11
RD, 1.111 µM	1.13
RD, 3.333 µM	0.864
RD, 10 µM	0.501
RD-ES, 0.00017 µM	0.916
RD-ES, 0.00051 µM	0.92
RD-ES, 0.00152 µM	0.953
RD-ES, 0.00457 µM	0.95
RD-ES, 0.01372 µM	0.938
RD-ES, 0.04115 µM	0.949
RD-ES, 0.1235 µM	0.958
RD-ES, 0.3704 µM	0.895
RD-ES, 1.111 µM	0.857
RD-ES, 3.333 µM	0.616
RD-ES, 10 µM	0.252
SK-ES-1, 0.00017 µM	1.01
SK-ES-1, 0.00051 µM	1.05
SK-ES-1, 0.00152 µM	1.03
SK-ES-1, 0.00457 µM	0.986
SK-ES-1, 0.01372 µM	1.04
SK-ES-1, 0.04115 µM	0.992
SK-ES-1, 0.1235 µM	1
SK-ES-1, 0.3704 µM	0.941
SK-ES-1, 1.111 µM	0.885
SK-ES-1, 3.333 µM	0.514
SK-ES-1, 10 µM	0.128
SK-LMS-1, 0.00017 µM	1.13
SK-LMS-1, 0.00051 µM	1.13
SK-LMS-1, 0.00152 µM	1.133
SK-LMS-1, 0.00457 µM	1.13
SK-LMS-1, 0.01372 µM	1.09
SK-LMS-1, 0.04115 µM	0.982
SK-LMS-1, 0.1235 µM	0.599
SK-LMS-1, 0.3704 µM	0.379
SK-LMS-1, 1.111 µM	0.339
SK-LMS-1, 3.333 µM	0.205
SK-LMS-1, 10 µM	0.11
SW684, 0.00017 µM	1.17
SW684, 0.00051 µM	1.19
SW684, 0.00152 µM	1.2
SW684, 0.00457 µM	1.2
SW684, 0.01372 µM	1.21
SW684, 0.04115 µM	1.121
SW684, 0.1235 µM	0.945
SW684, 0.3704 µM	0.848
SW684, 1.111 µM	0.852
SW684, 3.333 µM	0.652
SW684, 10 µM	0.38
SW872, 0.00017 µM	1.08
SW872, 0.00051 µM	1.1
SW872, 0.00152 µM	1.08
SW872, 0.00457 µM	1.11
SW872, 0.01372 µM	1.06
SW872, 0.04115 µM	1.05
SW872, 0.1235 µM	1.06
SW872, 0.3704 µM	1.01
SW872, 1.111 µM	0.931
SW872, 3.333 µM	0.626
SW872, 10 µM	0.4
SW1353, 0.00017 µM	1.05
SW1353, 0.00051 µM	1.02
SW1353, 0.00152 µM	1.04
SW1353, 0.00457 µM	0.987
SW1353, 0.01372 µM	1.01
SW1353, 0.04115 µM	1.01
SW1353, 0.1235 µM	0.904
SW1353, 0.3704 µM	0.8127
SW1353, 1.111 µM	0.783
SW1353, 3.333 µM	0.54
SW1353, 10 µM	0.317
VA-ES-BJ, 0.00017 µM	1.07
VA-ES-BJ, 0.00051 µM	1.06
VA-ES-BJ, 0.00152 µM	1.04
VA-ES-BJ, 0.00457 µM	1
VA-ES-BJ, 0.01372 µM	1.04
VA-ES-BJ, 0.04115 µM	1.03
VA-ES-BJ, 0.1235 µM	0.9802
VA-ES-BJ, 0.3704 µM	0.971
VA-ES-BJ, 1.111 µM	0.91
VA-ES-BJ, 3.333 µM	0.68
VA-ES-BJ, 10 µM	0.266
